Data taken from patent US9540418B2, “Polypeptide specifically binding to rare earth nanoparticles and use thereof” (University of Science and Technology of China, priority 2012, dated 2017).

Tests used:
[1] = test system: mice liver; assay: Liver damage in mice livers (HE staining); assay type: in vivo, Balb/c mice; details: UCP+RE-1 or UCP+AP-1, tail vein, 24 hr
Method: Balb/c mice (purchased from SLAC Laboratory Animal (Shanghai, China), 6 weeks old, and weighed 20 g when used) were bred in a sterile housing, and then 300 μg (dosage: 15 mg/kg) UCN, UCN+PEG (containing 10 mg PEG), UCN+RE-1, UCP, UCP+RE-1, or UCP+AP-1 was injected through tail vein. An equal volume of normal saline was injected as a control. After 24 hr, the livers of the mice were removed and subjected to western blotting assay.
The mice livers obtained as described in Example 21 were in situ fixed with 2.5% glutaral-dimethyl arsine buffer (pH 7.4) at 4° C. for 1 hr, then fixed with 2% osmium tetroxide at room temperature for 1 hr, and then dehydrated with ethanol gradients. Then, the cell samples were embedded in paraffin. The embedded cell samples were cut into ultrathin slices, which were stained with HE (hematoxylin-eosin), and observed and imaged under fluorescence microscope.

[2] = Observation of binding form with UCN by TEM and SEM; details: TEM / SEM after washing off unbound
Description: The binding forms of RE-1 short peptide and REOB-1 phage with UCN were observed using a transmission electron microscope. The excess unbound polypeptides and phages were washed off from the complex of RE-1 and UCN. The complex was stained with uranium acetate (pH 6.7), and placed on a copper mesh coated with carbon film. A transmission electron microscope TEM (200 kV) (JEM-2100F, JEOL, Japan) was used for observation and imaging (FIG. 5A and FIG. 5B).
The binding form of RE-1 peptide to UCN was observed under a scanning electron microscope. The excess unbound polypeptides were washed off from the complex of RE-1 and UCN. The complex was placed on a copper mesh. A scanning electron microscope SEM (15 kV) (JEOL JSM-6700F, JEOL, Japan) was used for observation and imaging (FIG. 5C).

[3] = test system: HeLa cells; assay: Autophagosome formation in HeLa cells by transmission electron microscope; assay type: cell-based; details: 100 μg/mL UCN+RE-1 or UCP+RE-1, 24 hr
Method: HeLa cells were inoculated into a 24-well cell culturing plate at a density of about 3-5×10^4 cells/well, and cultured overnight for further use. At first, the medium was replaced with fresh DMEM medium, and then 100 μg/mL UCN, UCP, UCN+RE-1, or UCP+RE-1 was added. An equal volume of PBS was used as blank. After culturing for 24 hr, the cells were collected and in situ fixed with 2.5% glutaral-dimethyl arsine buffer (pH 7.4) at 4° C. for 1 hr, then fixed with 2% osmium tetroxide at room temperature for 1 hr, and then dehydrated with ethanol gradients. Then, the cell samples were embedded into epoxy resin (EPON812). The embedded cell samples were cut into ultrathin slices, which were stained with uranyl acetate and lead citrate, and observed and imaged under a transmission electron microscope (JEOL-1230, JEOL, Japan).

[4] = test system: living HeLa cells, the immobilized cells, and the cell culturing plate; assay: Nonspecific adherence of nanophosphors with or without RE-1 coating; assay type: cell-based; details: 2 hr treatment, washed 3 times with PBS
Method: Living HeLa cells (purchased from Institute of Biochemistry and Cell Biology, SIBS, CAS) cultured in a 96-well plate, immobilized cells, and cell culturing plate were treated with UCN and UCN-S with or without RE-1 coating for 2 hr, respectively, and then washed with PBS for 3 times. The binding of UCN nanoparticles to the living HeLa cells, the immobilized cells, and the cell culturing plate was observed under a fluorescence microscope (Olympus IX71, Olympus, Japan) equipped with a 980 nm infrared laser (MDL-980 nm 1W, Changchun New Industries Optoelectronics Tech. Co., Ltd, China).

[5] = test system: HeLa-LC3 cells; assay: RE-1 blocking of nanophosphor-induced autophagy (LC3 aggregates and vacuoles); assay type: cell-based; details: nanophosphors coated with RE-1, 24 hr
Method: The rare-earth upconversion nanophosphors (UCN, UCP, UCN-S) coated with RE-1 were prepared as follows: 50 μg, 10 μg, and 350 μg RE-1 was mixed with 100 μg UCN, UCP, or UCN-S, respectively, incubated at 37° C. for 2 hr, centrifuged at 12000 rpm, and then washed with water for 3 times to remove the excess and unbound RE-1 peptides. The resultant precipitate was resuspended in 100 μL water.
HeLa-LC3 cells were inoculated into a 96-well cell culturing plate at a density of about 1-2×10^4 cells/well, and cultured overnight for further use. At first, the medium was replaced with fresh DMEM medium, to which UCN, UCP, or UCN-S with or without the coating of RE-1 peptides was added at different concentrations (0 μg/mL, 10 μg/mL, 100 μg/mL, 1000 μg/mL). After culturing for 24 hr, the fluorescence generated by GFP reporter gene was observed, imaged, and measured under a fluorescence microscope.
The ability to induce cell autophagy was estimated by determining the numbers of LC3 aggregates and vacuoles.

[6] = test system: HeLa cells; assay: Diffusibility / adherence on coverslip with cells facing upward or downward; assay type: cell-based
Method: HeLa cells were cultured on a coverslip (22 mm×22 mm), which was then placed into a 6-well plate with the cells facing upward or downward, and the coverslip was supported by a sterilized glass cube (2 mm×2 mm×2 mm). Then, 4 mL DMEM medium (Gibco) containing the rare-earth upconversion nanophosphors (UCN, UCP) with or without RE-1 coating was slowly poured into the 6-well plate, such that the cells were fully immersed in the medium, and the coverslip is just located at the middle of the height of the liquid. The cells were placed into a cell incubator at 37° C. for 2 hr, and then washed with PBS 3 times. The UCNs adhered to the surfaces of the cells were observed under a fluorescence microscope (Olympus IX71, Olympus, Japan) equipped with a 980-nm infrared laser (MDL-980 nm 1 W, Changchun New Industries Optoelectronics Tech. Co., Ltd, China).

ACTARSPWICG [RE-1, RE-0 with terminal amino acids A and G added]
effect of coating on liver damage induced by UCP [1]: significantly reduced the level of the damages to livers
binding form on the surface of UCN [2]: form a stable peptide coating on the surface of UCN
inhibition of autophagosome formation induced by UCN, UCP [3]: significantly inhibited
nonspecific adherence of UCN coated with RE-1 versus UCN without RE-1 coating [4]: about 10 times lower
nonspecific adherence of UCN-S coated with RE-1 versus UCN-S without RE-1 coating [4]: about 100 times lower
inhibition of cell autophagy induced by UCN, UCP, and UCN-S [5]: significantly inhibited
amount of nanophosphors (UCN, UCP) coated with RE-1 adhered to the cell surfaces ([6]; cell-facing-upward group, 37° C., 2 hr): significantly reduced
diffusibility of the rare-earth upconversion nanophosphors (UCN, UCP) in solution ([6]; cells facing upward versus downward): reduced the diffusibility
